Patent EP0946545B1, “NOVEL CARBOXY SUBSTITUTED CYCLIC CARBOXAMIDE DERIVATIVES” (Aventis Pharmaceuticals Inc., priority 1996, dated 1998)
pIC50: −log10 of the molar value. Where a name gives a salt, the structure may show the parent alone. Read-outs that look alike come from different tables or passages of the source.

How the values were obtained:
[1] = molecular target: T1, NK1 receptor (Cavia porcellus, UniProt P30547); experiment: Antagonism of iodinated tachykinin binding to NK1 receptors (Example A); set-up: species or system guinea pig
T1 construct: evaluated in guinea pig lungs (Keystone Biologicals, Cleveland, OH); tissue Keystone Biologicals, Cleveland, OH; host or cells: guinea pig lung membranes
Protocol: (§1) One skilled in the art can determine the NK1 receptor and NK2 receptor affinity in vitro as follows. The NK1 receptor affinity of tachykinin antagonists is evaluated in guinea pig lungs (Keystone Biologicals, Cleveland, OH) and affinity for the NK2 receptor is evaluated in HSKR-1 cells (which are mouse 3T3 fibroblasts expressing the human jejunal NK2 receptor). Tissues or cells are homogenized with a Polytron in 15 volumes of 50 mM Tris-HC1 buffer (pH 7.4, 4°C) and centrifuged. The pellet is resuspended in Tris-HCl buffer and is centrifuged; the pellet is washed twice by resuspension. The final pellet is resuspended at a concentration of 40 mg/ml for tissues and 20 mg/ml for cells in incubation buffer and remains at room temperature for at least 15 min prior to use. Receptor binding is initiated by addition of 250 ul membrane preparation in duplicate to 0.1 nM of the following radioligands: ^125I-Bolton Hunter Lys-3 labeled substance P and ^125iodohistidyl-1-neurokinin A; in a final volume of 500 ul of buffer containing 50 mM Tris-HCl (pH 7.4 at room temperature), 0.1% bovine serum albumin, 2 mM mangenese chloride, 40 ug/ml bacitracin, 4 µg/ml leupeptin and chymostatin, 10 µM thiorphan and various doses of the putative tachykinin antagonists. Incubations are performed at room temperature for 90 min (NK1 receptor assays) or 2 hr (NK2 receptor assay); binding is terminated by addition of 50 mM Tris-HCl buffer (pH 7.4, 4°C) and filtration under vacuum through GF/B filters presoaked with 0.1% polyethyleneimine (NK1 receptor assays) or 0.5% bovine serum albumin (NK2 receptor assay). Filter bound radioactivity is quantitated in a gamma counter. Nonspecific binding is defined as binding in the presence of 1 µM substance P or neurokinin A. Specific binding is calculated by subtracting nonspecific binding from total binding. Competition of iodinated SP or NKA binding by test compounds or standards is expressed as a percentage of this maximum binding. IC50 values (concentration required to inhibit 50% of receptor binding) are generated for each of the test compounds by nonlinear regression using an iterative curve fitting program (GraphPAD Inplot, San Diego, CA).
(§2) Tackykinin receptor binding (IC50 values) for representative compounds of the present invention is found in Table 1. The values in Table 1 were determined by the method of present Example A and represent the mean of several experiments, except where noted. […]

[2] = molecular target: T2, human jejunal NK2 receptor (Homo sapiens, UniProt P21452); experiment: Antagonism of iodinated tachykinin binding to NK2 receptors (Example A)
T2 construct: expressed in transfected cells; host or cells: HSKR-1 cells (mouse 3T3 fibroblasts)
T2 sequence (P21452 1-398): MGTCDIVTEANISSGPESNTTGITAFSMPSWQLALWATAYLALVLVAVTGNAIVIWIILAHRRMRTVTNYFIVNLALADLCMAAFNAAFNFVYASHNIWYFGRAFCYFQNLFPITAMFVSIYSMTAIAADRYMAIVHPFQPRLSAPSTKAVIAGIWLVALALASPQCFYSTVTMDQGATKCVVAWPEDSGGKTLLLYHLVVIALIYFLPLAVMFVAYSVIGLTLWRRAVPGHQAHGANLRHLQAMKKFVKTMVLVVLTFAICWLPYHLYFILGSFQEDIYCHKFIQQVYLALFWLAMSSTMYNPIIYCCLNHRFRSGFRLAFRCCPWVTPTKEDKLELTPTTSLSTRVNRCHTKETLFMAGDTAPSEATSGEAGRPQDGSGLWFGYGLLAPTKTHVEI
Protocol: as §1, §2

[3] = read-out: Tachykinin Receptor Binding NK1 IC50, guinea pig lungs membranes, 0.1 nM 125I-Bolton Hunter Lys-3 labeled substance P, 90 min room temperature, mean of several experiments
[4] = read-out: Tachykinin Receptor Binding NK2 IC50, HSKR-1 cells (mouse 3T3 fibroblasts expressing the human jejunal NK2 receptor), 0.1 nM 125iodohistidyl-1-neurokinin A, 2 hr room temperature, mean of several experiments

T1 sequence (P30547 whole entry): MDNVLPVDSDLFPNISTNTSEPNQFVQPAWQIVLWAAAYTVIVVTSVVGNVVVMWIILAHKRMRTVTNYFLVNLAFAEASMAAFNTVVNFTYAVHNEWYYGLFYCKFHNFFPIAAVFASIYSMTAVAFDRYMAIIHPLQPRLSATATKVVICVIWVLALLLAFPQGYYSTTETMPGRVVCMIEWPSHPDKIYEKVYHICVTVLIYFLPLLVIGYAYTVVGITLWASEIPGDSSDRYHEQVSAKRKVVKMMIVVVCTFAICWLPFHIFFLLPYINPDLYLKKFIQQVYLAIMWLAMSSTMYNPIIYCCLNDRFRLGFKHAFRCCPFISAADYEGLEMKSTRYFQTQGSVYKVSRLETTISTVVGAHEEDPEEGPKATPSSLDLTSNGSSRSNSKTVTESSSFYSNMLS

SMILES: CCOC(=O)OCOC(=O)CN1CCN(C(=O)C2(c3ccccc3)CCN(CC[C@]3(c4ccc(Cl)c(Cl)c4)CCN(C(=O)c4cc(OC)c(OC)c(OC)c4)C3)CC2)CC1 [Example 31.2, (R)-1-(3,4,5-trimethoxybenzoyl)-3-(2-(4-phenyl-4-((4-carbo(ethoxycarbonyloxymethoxy)methylpiperazin-1-yl)carboxamido)piperidine)ethyl)-3-(3,4-dichlorophenyl)pyrrolidine fumaric acid salt]
- pIC50 [1, 3]: 7.93
- pIC50 [2, 4]: 8.04

SMILES: COc1cc(C(=O)N2CC[C@](CCN3CCC(C(=O)N4CCN(CCCC(=O)O)CC4)(c4ccccc4)CC3)(c3ccc(Cl)c(Cl)c3)C2)cc(OC)c1OC [Example 30.2, (R)-1-(3,4,5-trimethoxybenzoyl)-3-(2-(4-phenyl-4-((4-carboxypropylpiperazin-1-yl)carboxamido)piperidine)ethyl)-3-(3,4-dichlorophenyl)pyrrolidine hydrochloric acid salt]
- pIC50 [1]: 8.47
- pIC50 [2]: 8.44

SMILES: CCOC(=O)CN1CCN(C(=O)C2(c3ccccc3)CCN(CCC3(c4ccc(F)c(F)c4)CCN(C(=O)c4cc(OC)c(OC)c(OC)c4)C3)CC2)CC1 (centres unmarked) [Example 23.8, 1-(3,4,5-trimethoxvbenzoyl)-3-(2-(4-phenyl-4-((4-carboethoxymethylpiperazin-1-yl)carboxamido)piperidin-1-yl)ethyl)-3-(3,4-difluorophenyl)pyrrolidine hydrochloric acid salt]
- pIC50 [1]: 8.08
- pIC50 [2]: 7.93

SMILES: COc1cc(C(=O)N2CC[C@](CCN3CCC(C(=O)N4CCC(C(=O)O)CC4)(c4ccccc4)CC3)(c3ccc(Cl)c(Cl)c3)C2)cc(OC)c1OC [Example 22.1, (R)-1-(3,4,5-trimethoxybenzoyl)-3-(2-(4-phenyl-4-((4-carboxypiperidin-1-yl)carboxamido)piperidin-1-yl)ethyl)-3-(3,4-dichlorophenyl)pyrrolidine hydrochloric acid salt]
- pIC50 [1]: 8.39
- pIC50 [2]: 8.20

SMILES: CCCC(=O)OCOC(=O)CN1CCN(C(=O)C2(c3ccccc3)CCN(CC[C@]3(c4ccc(Cl)c(Cl)c4)CCN(C(=O)c4cc(OC)c(OC)c(OC)c4)C3)CC2)CC1 [Example 35.2, (R)-1-(3,4,5-trimethoxybenzoyl)-3-(2-(4-phenyl-4-((4-carbo(propylcarbonyloxymethoxy)methylpiperazin-1 yl)carboxamido)piperidine)ethyl)-3-(3,4-dichlorophenyl)pyrrolidine fumaric acid salt]
- pIC50 [1, 3]: 7.83
- pIC50 [2, 4]: 7.93

SMILES: CCOC(=O)CN1CCN(C(=O)C2(c3ccccc3)CCN(CC[C@]3(c4ccc(Cl)c(Cl)c4)CCN(C(=O)c4cc(-n5cnnn5)ccc4OC)C3)CC2)CC1 [Example 10.4, (R)-1-(2-methoxy-5-(1H-tetrazol-1-yl)benzoyl)-3-(2-(4-phenyl-4-((4-carboethoxymethylpiperazin-1-yl)carboxamido)piperidine)ethyl)-3-(3,4-dichlorophenyl)pyrrolidine hydrochloric acid salt]
- pIC50 [1]: 8.07
- pIC50 [2]: 7.29

SMILES: CCOC(=O)CN1CCN(C(=O)C2(c3cccnc3)CCN(CC[C@]3(c4ccc(Cl)c(Cl)c4)CCN(C(=O)c4cc(OC)c(OC)c(OC)c4)C3)CC2)CC1 [Example 5.5, (R)-1-(3,4,5-trimethoxybenzoyl)-3-(2-(4-(pyrid-3-yl)-4-((4-carboethoxymethylpiperazin-1-yl)carboxamido)piperidin-1-yl)ethyl)-3-(3,4-dichlorophenyl)pyrrolidine hydrochloric acid salt]
- pIC50 [1]: 8.20
- pIC50 [2]: 8.60

SMILES: COc1cc(C(=O)N2CC[C@](CCN3CCC(C(=O)N4CCN(CC(=O)OCC(=O)N(CCO)CCO)CC4)(c4ccccc4)CC3)(c3ccc(Cl)c(Cl)c3)C2)cc(OC)c1OC [Example 36.1, (R)-1-(3,4,5-Trimethoxybenzoyl)-3-(2-(4-phenyl-4-((4-carbo(N,N-di-(2-hydroxyethyl)carboxamidomethoxy)methylpiperazin-1-yl)carboxamido)piperidin-1-yl)ethyl)-3-(3,4-dichlorophenyl)pyrrolidine]
- pIC50 [1, 3]: 8.57
- pIC50 [2, 4]: 8.63

SMILES: CCOC(=O)CCN1CCN(C(=O)C2(c3ccccc3)CCN(CC[C@]3(c4ccc(Cl)c(Cl)c4)CCN(C(=O)c4cc(OC)c(OC)c(OC)c4)C3)CC2)CC1 [Example 27.3, (R)-1-(3,4,5-trimethoxvbenzoyl)-3-(2-(4-phenyl-4-((4-carboethoxyethylpiperazin-1-yl)carboxamido)piperidine)ethyl)-3-(3,4-dichlorophenyl)pyrrolidine hydrochloric acid salt]
- pIC50 [1]: 8.04
- pIC50 [2]: 8.63

SMILES: CCOC(=O)C1CN(C(=O)C2(c3ccccc3)CCN(CC[C@]3(c4ccc(Cl)c(Cl)c4)CCN(C(=O)c4cc(OC)c(OC)c(OC)c4)C3)CC2)CCO1 (stereo partly drawn) [Example 25.2, (R)-1-(3,4,5-trimethoxybenzoyl)-3-(2-(4-phenyl-4-((2-carboethoxymorpholin-4-yl)carboxamido)piperidin-1-yl)ethyl)-3-(3,4-dichlorophenyl)pyrrolidine fumaric acid salt]
- pIC50 [1]: 7.84
- pIC50 [2]: 8.19
